Laboratory results published in patent US4461831A, “Antitumor agents albacarcins V and M” (Bristol-Myers Company, priority 1982, dated 1984).
In brackets after ≈: the same amount, converted by molar mass. Where two headings read alike, the source gives them in different places.

Experiments:
Enterobacter cloacae = assay: antibacterial activity, serial two-fold agar dilution method; assay type: cell-based; details: Strain No. 9659
Method: (§1) The antibacterial activities of albacarcin V and M were determined by a serial two-fold agar dilution method.

Escherichia coli = assay: as above; assay type: cell-based
Method: as §1

Klebsiella pneumoniae = assay: as above; assay type: cell-based; details: Strain No. 15130
Method: as §1

Proteus mirabilis = assay: as above; assay type: cell-based; details: Strain No. 9900
Method: as §1

Proteus vulgaris = assay: as above; assay type: cell-based; details: Strain No. 21559
Method: as §1

Pseudomonas aeruginosa = assay: as above; assay type: cell-based; details: Strain No. 9843A
Method: as §1

Serratia marcescens = assay: as above; assay type: cell-based; details: Strain No. 20019
Method: as §1

Staphylococcus aureus = assay: as above; assay type: cell-based; details: for MIC: Staphylococcus aureus, read-out: Minimum Inhibitory Concentration
Method: as §1

Streptococcus pneumoniae = assay: as above; assay type: cell-based; details: Strain No. 9585
Method: as §1

Streptococcus pyogenes = assay: as above; assay type: cell-based; details: Strain No. 9604
Method: as §1

P388 leukemia = assay type: in vivo, CDF1 female mice; details: for Effect MST % T/C / MST (median survival time): 3X, Days 1,4,7; for host survival in the P388 leukemia screening test (in words): mouse, in vivo
Text: Details of the methods used in this procedure have been described in Cancer Chemother. Rep. 3: 1-87 (Part 3), 1972.
Host CDF1 .female. mice
Treatment 3X, Days 1,4,7
Evaluation MST = median survival time
Effect % T/C = (MST treated/MST control) × 100
Criteria % T/C ≥ 125 considered significant antitumor activity.

gram-positive bacteria = assay: antibacterial activity, agar dilution, gram-positive summary; assay type: cell-based; details: summary of Table IV
Method: as §1

gram-negative bacteria = assay: antibacterial activity, agar dilution, gram-negative summary; assay type: cell-based; details: at the highest dose tested
Method: as §1

[1] = reported in Antibiotiki 22: 963-967 at 967, 1977; cited from earlier work
[2] = test system: Streptomyces albaduncus strain C38291; assay: growth inhibition of producing strain by antibiotics; assay type: cell-based
Text: The growth of strain C38291 is inhibited by streptomycin or tetracycline, but not by benzylpenicillin, ampicillin or erythromycin. The sodium chloride tolerance is seen at 8% or less, but not at 10% or more. Melanin is not produced from L-3,4-dihydroxy phenylalanine (L-DOPA). Among eleven diagnostic sugars described in Bergey's Manual, 8th ed. (1974), only raffinose is not utilized by strain C38291. The physiological characteristics and utilization of carbohydrates are shown in Tables II and III, respectively.

## COc1cc2c(oc(=O)c3cc(C)cc(OC)c32)c2c(C3OC(C)C(O)C(C)(O)C3O)ccc(O)c12 (stereo not drawn) [Albacarcin M, albacarcin M]
Enterobacter cloacae; Enterobacter cloacae, read-out: Minimum Inhibitory Concentration
  MIC: > 50 µg/mL
Escherichia coli; Escherichia coli, Strain No. 15119, read-out: Minimum Inhibitory Concentration
  MIC: > 50 µg/mL
Escherichia coli; Strain No. 20341-1
  Minimum Inhibitory Concentration: > 50 µg/mL
Klebsiella pneumoniae; Klebsiella pneumoniae, read-out: Minimum Inhibitory Concentration
  MIC: > 50 µg/mL
Proteus mirabilis; Proteus mirabilis, read-out: Minimum Inhibitory Concentration
  MIC: > 50 µg/mL
Proteus vulgaris; Proteus vulgaris, read-out: Minimum Inhibitory Concentration
  MIC: > 50 µg/mL
Pseudomonas aeruginosa; Pseudomonas aeruginosa, read-out: Minimum Inhibitory Concentration
  MIC: > 50 µg/mL
Serratia marcescens; Serratia marcescens, read-out: Minimum Inhibitory Concentration
  MIC: > 50 µg/mL
Staphylococcus aureus; Strain No. 9497
  MIC: 0.8 µg/mL (≈ 1.61 µM)
Staphylococcus aureus; Strain No. 9537
  MIC: 3.2 µg/mL (≈ 6.44 µM)
Staphylococcus aureus; Strain No. 9606
  MIC: 3.2 µg/mL (≈ 6.44 µM)
Staphylococcus aureus; Strain No. 20688
  MIC: 1.6 µg/mL (≈ 3.22 µM)
Streptococcus pneumoniae; Streptococcus pneumoniae, read-out: Minimum Inhibitory Concentration
  MIC: 0.4 µg/mL (≈ 0.806 µM)
Streptococcus pyogenes; Streptococcus pyogenes, read-out: Minimum Inhibitory Concentration
  MIC: 1.6 µg/mL (≈ 3.22 µM)
P388 leukemia; 8 mg/kg/inj
  Effect MST % T/C: 113 % T/C
  MST (median survival time): 9.0 days
P388 leukemia; 16 mg/kg/inj
  Effect MST % T/C: 119 % T/C
  MST (median survival time): 9.5 days
P388 leukemia; 32 mg/kg/inj
  Effect MST % T/C: 150 % T/C
  MST (median survival time): 12.0 days
P388 leukemia; 64 mg/kg/inj
  Effect MST % T/C: 150 % T/C
  MST (median survival time): 12.0 days
P388 leukemia; 128 mg/kg/inj
  Effect MST % T/C: 175 % T/C
  MST (median survival time): 14.0 days
P388 leukemia; 256 mg/kg/inj
  Effect MST % T/C: 200 % T/C
  MST (median survival time): 16.0 days
P388 leukemia
  host survival in the P388 leukemia screening test (in words): significantly prolong host survival
gram-positive bacteria
  gram-positive antibacterial activity (in words): moderate gram-positive antibacterial activity
gram-negative bacteria
  gram-negative activity (in words): Little or no gram-negative activity

## virenomycin
[1]
  antitumor activity (in words): comparatively low antitumor activity and narrow spectrum

## CC1(C)S[C@@H]2[C@H](NC(=O)[C@H](N)c3ccccc3)C(=O)N2[C@H]1C(=O)O [ampicillin]
[2]
  growth of strain C38291 inhibited or not: not

## CC1(C)S[C@@H]2[C@H](NC(=O)Cc3ccccc3)C(=O)N2[C@H]1C(=O)O [benzylpenicillin]
[2]
  growth of strain C38291 inhibited or not: not

## [H]/N=C(/N)N[C@H]1[C@H](O)[C@@H](O)[C@H](O[C@@H]2O[C@@H](C)[C@](O)(C=O)[C@H]2O[C@@H]2O[C@@H](CO)[C@H](O)[C@@H](O)[C@@H]2NC)[C@@H](N/C(N)=N\[H])[C@@H]1O [streptomycin]
[2]
  growth of strain C38291 inhibited or not: inhibited

## C=Cc1cc(OC)c2c(c1)c(=O)oc1c2cc(OC)c2c(O)ccc(C3OC(C)C(O)C(C)(O)C3O)c21 (stereo not drawn) [Albacarcin V, albacarcin V]
Enterobacter cloacae
  Minimum Inhibitory Concentration: > 50 µg/mL
Escherichia coli; Strain No. 15119
  Minimum Inhibitory Concentration: > 50 µg/mL
Escherichia coli; Strain No. 20341-1
  Minimum Inhibitory Concentration: > 50 µg/mL
Klebsiella pneumoniae
  Minimum Inhibitory Concentration: > 50 µg/mL
Proteus mirabilis
  Minimum Inhibitory Concentration: > 50 µg/mL
Proteus vulgaris
  Minimum Inhibitory Concentration: 3.2 µg/mL
Pseudomonas aeruginosa
  Minimum Inhibitory Concentration: > 50 µg/mL
Serratia marcescens
  Minimum Inhibitory Concentration: > 50 µg/mL
Staphylococcus aureus; Strain No. 9497
  Minimum Inhibitory Concentration: 0.0125 µg/mL
Staphylococcus aureus; Strain No. 9537
  Minimum Inhibitory Concentration: 0.0125 µg/mL
Staphylococcus aureus; Strain No. 9606
  Minimum Inhibitory Concentration: 0.4 µg/mL
Staphylococcus aureus; Strain No. 20688
  Minimum Inhibitory Concentration: 0.1 µg/mL
Streptococcus pneumoniae
  Minimum Inhibitory Concentration: 0.025 µg/mL
Streptococcus pyogenes
  Minimum Inhibitory Concentration: 0.05 µg/mL
P388 leukemia; 8 mg/kg/inj
  Effect MST % T/C: 113 % T/C
  MST (median survival time): 9.0 days
P388 leukemia; 16 mg/kg/inj
  Effect MST % T/C: 131 % T/C
  MST (median survival time): 10.5 days
P388 leukemia; 32 mg/kg/inj
  Effect MST % T/C: 150 % T/C
  MST (median survival time): 12.0 days
P388 leukemia; 64 mg/kg/inj
  Effect MST % T/C: 194 % T/C
  MST (median survival time): 15.5 days
P388 leukemia; 128 mg/kg/inj
  Effect MST % T/C: 200 % T/C
  MST (median survival time): 16.0 days
P388 leukemia; 256 mg/kg/inj
  Effect MST % T/C: 100 % T/C
  MST (median survival time): 8.0 days
P388 leukemia; comparing optimum doses (maximum T/C) and minimum effective dose (lowest dose giving T/C>125)
  potency relative to albacarcin M in P388 test: twice as potent as albacarcin M
P388 leukemia
  host survival in the P388 leukemia screening test (in words): significantly prolong host survival
gram-positive bacteria
  antibacterial potency relative to albacarcin M: more potent than albacarcin M
  gram-positive antibacterial activity (in words): moderate gram-positive antibacterial activity
gram-negative bacteria
  gram-negative activity (in words): Little or no gram-negative activity

## CN(C)[C@@H]1C(=O)C(C(N)=O)=C(O)[C@@]2(O)C(=O)C3=C(O)c4c(O)cccc4[C@@](C)(O)[C@H]3C[C@@H]12 [tetracycline]
[2]
  growth of strain C38291 inhibited or not: inhibited

## CC[C@H]1OC(=O)[C@H](C)[C@@H](O[C@H]2C[C@@](C)(OC)[C@@H](O)[C@H](C)O2)[C@H](C)[C@@H](O[C@@H]2O[C@H](C)C[C@H](N(C)C)[C@H]2O)[C@](C)(O)C[C@@H](C)C(=O)[C@H](C)[C@@H](O)[C@]1(C)O [erythromycin]
[2]
  growth of strain C38291 inhibited or not: not
